The values below come from patent US7282215B2, “Supports for photosensitizer formulations” (The University of British Columbia, priority 2000, dated 2007).

Molecules are shown by their SMILES.

The test system of series [1] is arthritis in the MRL/1pr mouse. Description: Transcutaneous PDT of arthritis, ankle width. In kind it is in vivo. The note with it: 0.5 mg/kg i.v. As for the experimental part:
Arthritis in the MRL/1pr mouse strain was enhanced by giving 2 intradermal injections (thoracic and inguinal sites) with 0.05 ml of complete Freunds adjuvant containing 10 mg/ml heat-inactivated M. tuberculosis. PDT was given on days 0, 10 and 20 following CFA treatment. PDT was carnied out as follows; 3 groups of MRL/1pr mice were injected intravenously with B-B3 at 0.5 mg/kg (copolymer or liposomal formulations), after which they were protected from light. The third group was injected with copolymer alone at an equivalent copolymer concentration to that found in the formulation. An hour later, they were exposed to light at 80 J/cm^2 for […] (8 mW/cm^2).
Ankle width measurements were taken every 5 days prior to PDT treatment.

Series [2] is described as follows: Optimization of B-B3 incorporation in 10% w/v P123. The class given is physicochemical. As to the method:
Using formulation methods described in Example 5, the aim was to incorporate 2 mg/ml of B-B3 into 10% w/v P123. It was shown by this method that the B-B3 can typically be incorporated at ˜1.8 mg/ml drug (based on absorbance readings and a molar extinction coefficient of 30425) 24 h post-hydration. This translates to approximately 10% drug loss. Unincorporated drug undergoes aggregation in aqueous solutions, and is characterized by the appearance of a 730 nm absorbance peak. Although the formulations can be made completely aggregate free by centrifugation or sterile filtration through 0.2 μm filters, this adds another step in the manufacturing process, which can be avoided by increasing the copolymer:drug ratio.

Series [3] in a line: pH studies of copolymer formulations. The class given is physicochemical. The note with it: acidification. From the text: Counteracting the oily nature of P123 could be achieved by incorporation of copolymer that is in solid form at room temperature. The use of 1% w/w F127 with 9% w/v P123 instead of 10% P123 (w/v) produced a thin film, which was more readily hydrated. […] This necessitates hydration of the solid drug-polymer with a very mild buffer to counteract acidification which occurs upon use of sterile packed distilled water as commonly practiced in clinical settings. Behavior of poloxamers is unaffected by pH, and the use of buffers would be entirely dependent on ionizable groups present on the drug substance.

The nature of series [4]: Vesicle size of liposomal BPD-MA (conventional and lactose micro-thin film). In kind it is physicochemical. As for the experimental part:
For the standard laboratory preparation the liposomal bilayer components of 20 mg BPD-MA, 65 mg egg phosphatidyl glycerol (EPG) and 94 mg dimyristoyl phosphatidylcholine (DMPC), are combined in a round bottom flask and dissolved in 10 ml methylene dichloride (CH2Cl2). […]. The solvent is removed using standard rotary evaporation (Rotavapor R-124 and Buchi B171 Vacobox pump) leaving a thin film of the bilayer components on the flask wall. Once the thin film is prepared, it is hydrated using 10 ml iso-osmolar lactose (10% w/v) to give a final concentration of 2 mg/ml BPD-MA. Size reduction is carried out by consecutive extrusions through 400 nm, 200 nm, and finally 100 nm pore polycarbonate membranes (5 times through each) under high pressure. […] The final product was lyophilized and can be reconstituted prior to use by addition of water.
10 mg BPD-MA was combined with 32.5 mg phosphatidyl glycerol (EPG) and 47 mg dimyristoyl phosphatidylcholine (DMPC), and dissolved in 5 ml CH2Cl2. 2.5 ml of this solution (containing 5 mg BPD-MA) was then added to […] lactose in a rotary evaporator flask. The solvent was removed under rotary evaporation at 50° C. The film deposited on the glass wall was hydrated by addition of 2.5 ml warm distilled water (60° C.) with swirling. The hydrated material was examined under the microscope. Size reduction was carried out by extrusion of the hydrated material through 400, 200 and 100 nm pore polycarbonate membranes (5× through each) as described in Example 20.
In this experiment the effect of replacing CH2Cl2 with ethanol as a solvent for the sugar proliposomal formulation of photosensitizer and phospholipids was examined. The experiment was carried out as described in Example 21 except with the following changes: 20 mg BPD-MA was combined with 65 mg EPG and 94 mg DMPC, and dissolved in a total volume of 20 ml ethanol with occasional warming in 50° C. water bath. Ethanol was removed under rotary evaporation at 50° C., leaving BPD-MA/lipid coated lactose crystals evenly deposited onto flask wall. Flask was removed from the temperature bath, and left under vacuum for 10 min. The contents of the flask were scraped and hydrated by addition of 10 ml distilled water (60° C.) with swirling. The hydrated material was examined under the microscope and the MLV diameter was measured using laser light scattering on a NICOMP™ 370 Submicron Particle Sizer. Extrusion was then carried out as described in Example 20.
The experimental procedure was carried out was as described in Example 22, with the exception of the following changes. The liposomal bilayer constituents, 32.5 mg of EPG and 47 mg of DMPC, were dissolved in 2 ml ethanol, instead of 20 ml. The solution was warmed to 50° C. in a water bath. This was followed by addition of 10 mg BPD-MA, and the total volume was made up to 4 ml to ensure complete dissolution (2.5 mg/ml final concentration). 0.5 g of lactose was added to the round bottom flask. The solvent was removed by rotary evaporation, and the flask removed from the water bath, and left under vacuum for 1.5 h. For hydration, 5 ml of pre-warmed distilled water (60° C.) was added to flask with swirling. Extrusion of the solution and sizing of the vesicles was carried out as described in Example 22.

Where [5] appears, read: liposomal formulation, light 80 J/cm^2.

In the case of `C=Cc1c(C)c2cc3nc(cc4[nH]c(cc5nc(cc1[nH]2)C1(C)C5=CC=C(C(=O)O)C1C(=O)OC)c(C)c4CCC(=O)OC)C(CCC(=O)OC)=C3C` (stereo not shown) [B-B3], in series [1] (copolymer formulation, light 80 J/cm^2 1 h later, PDT days 0, 10, 20), the “Control of inflammation (increase in ankle swelling)” value is listed as “highly effective in controlling the inflammation”. For the same compound, in series [1] (setting [5]), the “Control of inflammation (ankle swelling), after day 25” value is on record as “exacerbation of the inflammatory condition” and the “Control of inflammation (ankle swelling), earlier part of the study” value is “better suppression of the inflammation compared to the controls”. The Drug loss result in series [2] (2 mg/ml added) is listed as “approximately 10%”. The Drug incorporated in series [2] (2 mg/ml added, 24 h post-hydration) was around 1.8 mg/mL. Besides, the Drug incorporation result in series [2] (final drug concentration 1 mg/ml) is listed as “complete incorporation of all added drug”. In addition, the “pH dependency of formulation stability” value in series [3] is given as “detrimental to formulation stability”.

With `C=Cc1c(C)c2cc3nc(cc4[nH]c(cc5nc(cc1[nH]2)C(C)=C5CCC(=O)O)c(CCC(=O)OC)c4C)[C@@]1(C)C3=CC=C(C(=O)OC)[C@H]1C(=O)OC` [BPD-MA, benzoporphyrin derivative mono-acid-ring A, reference compound], in series [4] (hydration of conventional thin films), the “Diameter of MLVs” value is on record as above 1 μm. In addition, the “Mean diameter of the MLVs” value in series [4] (lactose micro-thin film from ethanol, 92.44% by volume) is on record as 690 nm. The “Diameter of unilamellar vesicles after extrusion, smaller population” value in series [4] (lactose micro-thin film, 20 ml ethanol, 23.17% by volume) came to 47.9 nm. In addition, the “Diameter of unilamellar vesicles after extrusion, larger population” value in series [4] (lactose micro-thin film, 20 ml ethanol, 76.83% by volume) came out at 110.4 nm. Further, in series [4] (lactose micro-thin film, reduced ethanol volume, 29.49% by volume), the “Mean diameter of unilamellar vesicles, smaller population” value worked out at 58.4 nm. Also, the “Mean diameter of unilamellar vesicles, larger population” value in series [4] (lactose micro-thin film, reduced ethanol volume, 70.5% by volume) is on record as 132.4 nm.
